In one assay the target is Histone deacetylase 8 (Homo sapiens, UniProt Q9BY41). As to the kind of experiment: Inhibition of HDAC8 (unknown origin) using Boc-Lys(acetyl)-AMC as substrate preincubated for 1 hrs followed by substrate addition and measured after 2 hrs by spectrophotometer based fluorometric assay.
Another assay relates to JeKo-1. The experiment in a line: Induction of apoptosis in human JeKo-1 cells assessed as necrotic cells at 0.25 uM incubated for 48 hrs by Annexin-V/FITC and PI staining based flow cytometric analysis (reference value: 1.05%). The class given is functional. In general terms: In flow cytometry, cells or beads pass a laser one at a time.

Histone deacetylase 8, sequence (Q9BY41 whole entry): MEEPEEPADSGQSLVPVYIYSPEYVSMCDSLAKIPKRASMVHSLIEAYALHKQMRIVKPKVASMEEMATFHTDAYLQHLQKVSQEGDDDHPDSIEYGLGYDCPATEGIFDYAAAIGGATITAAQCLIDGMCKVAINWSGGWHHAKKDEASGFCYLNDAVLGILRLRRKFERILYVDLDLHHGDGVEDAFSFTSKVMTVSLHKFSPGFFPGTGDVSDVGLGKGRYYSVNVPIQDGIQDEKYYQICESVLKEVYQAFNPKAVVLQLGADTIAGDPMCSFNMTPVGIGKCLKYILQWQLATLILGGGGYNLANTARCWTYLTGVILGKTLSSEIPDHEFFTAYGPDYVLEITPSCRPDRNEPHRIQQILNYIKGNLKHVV

One may read the IC50 as the concentration at which inhibition is half-maximal. For the compound `COc1nc(-c2ccc(NC(=O)Nc3ccc(C(=O)NCCCCCC(=O)Nc4ccccc4N)cc3)cc2)nc(N2CCOCC2)n1`, the IC50 on Histone deacetylase 8 is above 10 µM. Moreover, the Activity in the assay with JeKo-1 came out at 0.85%.
